Measured values taken from ChEMBL document CHEMBL5500417, “Discovery of Novel 2-Oxoacetamide Derivatives as B3GAT3 Inhibitors for the Treatment of Hepatocellular Carcinoma” (J Med Chem, 2024).

Legend:
HCCLM3 [1] = experiment: cells; settings: Homo sapiens, HCCLM3, 72 h
Description: Antitumor activity against human HCCLM3 cells assessed as inhibition of cell growth measured after 72 hrs by CCK-8 assay

MHCC97H [2] = experiment: cells; settings: Homo sapiens, 72 h
Description: Antitumor activity against human MHCC97H cells assessed as inhibition of cell growth measured after 72 hrs by CCK-8 assay

[3] = target: T1, Galactosylgalactosylxylosylprotein 3-beta-glucuronosyltransferase 3 (Homo sapiens, UniProt O94766); experiment: Binding affinity to CM5 sensor chip immobilized human B3GAT3 assessed as dissociation constant by SPR analysis
T1 sequence (O94766 whole entry): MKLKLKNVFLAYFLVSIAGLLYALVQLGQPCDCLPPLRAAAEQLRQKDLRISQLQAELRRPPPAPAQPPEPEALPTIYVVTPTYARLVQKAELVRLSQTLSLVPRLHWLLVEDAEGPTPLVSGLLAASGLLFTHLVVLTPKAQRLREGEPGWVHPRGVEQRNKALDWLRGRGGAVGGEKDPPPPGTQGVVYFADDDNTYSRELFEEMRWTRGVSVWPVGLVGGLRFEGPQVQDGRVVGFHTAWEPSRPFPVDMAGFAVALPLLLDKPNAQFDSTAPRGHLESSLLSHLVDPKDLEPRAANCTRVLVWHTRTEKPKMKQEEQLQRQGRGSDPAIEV

MHCC97H [4] = experiment: In vivo-antitumor activity against human MHCC97H cells xenografted BALB/c mouse model assessed as tumor growth inhibitor at 5 mg/kg, IG once daily measured after 31 days relative to control; settings: po, 744 h, read-out: TGI
HCCLM3 [5] = experiment: In vivo-antitumor activity against human HCCLM3 cells xenografted BALB/c mouse model assessed as reduction in tumor weight at 5 mg/kg, IG once daily measured after 31 days relative to control; settings: HCCLM3, po, 744 h, read-out: INH

IC50 (HCCLM3 [1]) [µM] | IC50 (MHCC97H [2]) [µM] | Kd [3] [µM] | Compound | inhibition in vivo at 5 mg/kg (MHCC97H [4]) [%] | inhibition in vivo at 5 mg/kg (HCCLM3 [5]) [%]
54.8 | 46.8 |  | COC(=O)c1ccc2c(C(=O)C(=O)NC3CCN(c4ccc(C)cc4Cl)C3=O)c[nH]c2c1 (centres undefined) |  | 
24.7 | 25.7 |  | Cc1ccc(N2CCC(NC(=O)C(=O)Nc3ccc4c(c3)OCO4)C2=O)c(Cl)c1 (centres undefined) |  | 
60 | 52.7 |  | Cc1ccc(N2CCC(NC(=O)C(=O)c3c[nH]c4ccccc34)C2=O)c(Cl)c1 (centres undefined) |  | 
31 | 17 |  | Cc1ccc(C(=O)N2CCCC(NC(=O)C(=O)c3c[nH]c4ccc(Br)cc34)C2)c(Cl)c1 (centres undefined) |  | 
> 80 | > 80 |  | Cc1ccc(N2CCC(NC(=O)C(=O)c3c[nH]c4ccc(Br)cc34)C2=O)cc1 (centres undefined) |  | 
25.4 | 16.3 |  | Cc1ccc(C(=O)N2CCN(C(=O)C(=O)c3c[nH]c4ccc(Br)cc34)CC2)c(Cl)c1 |  | 
17.7 | 5.59 | 289 | Cc1ccc(N2CCC(NC(=O)C(=O)Nc3ccc(-c4ccccc4)cc3)C2=O)c(Cl)c1 (centres undefined) |  | 
23.6 | 12.9 |  | Cc1ccc(C(=O)NCC2CCN(C(=O)C(=O)c3c[nH]c4ccc(Br)cc34)CC2)c(Cl)c1 |  | 
55.8 | 33.7 |  | Cc1ccc(N2CCC(NC(=O)C(=O)c3c[nH]c4ccc(C#N)cc34)C2=O)c(Cl)c1 (centres undefined) |  | 
> 80 | > 80 |  | Cc1ccc(N2CCC(NC(=O)C(=O)c3c[nH]c4cc(C(=O)O)ccc34)C2=O)c(Cl)c1 (centres undefined) |  | 
> 80 | > 80 |  | Cc1ccc(N2CCC(NC(=O)C(=O)c3c[nH]c4ccc(N)cc34)C2=O)c(Cl)c1 (centres undefined) |  | 
30.8 | 19.4 |  | Cc1ccc(C(=O)NC2CCN(C(=O)C(=O)c3c[nH]c4ccc(Br)cc34)C2)c(Cl)c1 (centres undefined) |  | 
> 80 | 12 |  | Cc1ccc(N2CCC(NC(=O)C(=O)c3c[nH]c4ccc(Br)cc34)C2=O)cc1Cl (centres undefined) |  | 
34.7 | 37.8 |  | COc1ccc2[nH]cc(C(=O)C(=O)NC3CCN(c4ccc(C)cc4Cl)C3=O)c2c1 (centres undefined) |  | 
> 80 | > 80 |  | Cc1ccc(N2CCC(NC(=O)C(=O)N3CCCc4ccccc43)C2=O)c(Cl)c1 (centres undefined) |  | 
15.8 | 6.19 | 113 | Cc1ccc(N2CCC(NC(=O)C(=O)c3c[nH]c4ccc(Br)cc34)C2=O)c(Cl)c1 (centres undefined) |  | 
11.7 | 3.51 | 206 | Cc1ccc(N2CCC(NC(=O)C(=O)Nc3ccc4c(c3)CCC4)C2=O)c(Cl)c1 (centres undefined) |  | 
44.3 | 35.1 |  | Cc1ccc(N2CCC(NC(=O)C(=O)c3c[nH]c4ccc(F)cc34)C2=O)c(Cl)c1 (centres undefined) |  | 
26.7 | 18.5 |  | Cc1ccc(C(=O)N2[C@@H]3CC[C@H]2CN(C(=O)C(=O)c2c[nH]c4ccc(Br)cc24)C3)c(Cl)c1 |  | 
22.2 | 11.8 |  | Cc1ccc(C(=O)N(C)C2CCN(C(=O)C(=O)c3c[nH]c4ccc(Br)cc34)CC2)c(Cl)c1 |  | 

IC50 (HCCLM3 [1]) [µM] | IC50 (MHCC97H [2]) [µM] | Kd [3] [µM] | Compound | inhibition in vivo at 5 mg/kg (MHCC97H [4]) [%] | inhibition in vivo at 5 mg/kg (HCCLM3 [5]) [%]
> 80 | 72.2 |  | Cc1ccc(N2CCC(NC(=O)C(=O)c3c[nH]c4ccc(O)cc34)C2=O)c(Cl)c1 (centres undefined) |  | 
> 80 | > 80 |  | Cc1ccc(N2CCC(NC(=O)C(=O)c3c[nH]c4ccc(C(=O)O)cc34)C2=O)c(Cl)c1 (centres undefined) |  | 
31 | 18.4 |  | Cc1ccc(N2CCC(NC(=O)C(=O)c3c[nH]c4ccc(Cl)cc34)C2=O)c(Cl)c1 (centres undefined) |  | 
57.3 | > 80 |  | Cc1ccc(N2CCC(NC(=O)CC(=O)Nc3ccc4c(c3)Cc3ccccc3-4)C2=O)c(Cl)c1 (centres undefined) |  | 
18.6 | 15.3 |  | O=C(NC1CCN(c2ccc(OC(F)(F)F)cc2)C1=O)C(=O)c1c[nH]c2ccc(Br)cc12 (centres undefined) |  | 
> 80 | > 80 |  | O=C(NC1CCN(c2ccccc2)C1=O)C(=O)c1c[nH]c2ccc(Br)cc12 (centres undefined) |  | 
12.2 | 14.5 |  | Cc1ccc(N2CCC(NC(=O)C(=O)Nc3ccc4c(c3)OCCO4)C2=O)c(Cl)c1 (centres undefined) |  | 
1530 | 28.1 |  | Cc1ccc(C(=O)N2CCC(NC(=O)C(=O)c3c[nH]c4ccc(Br)cc34)CC2)c(Cl)c1 |  | 
14.5 | 14.3 | 291 | Cc1ccc(N2CCC(NC(=O)C(=O)Nc3ccc4c(c3)Cc3ccccc3-4)C2=O)c(Cl)c1 (centres undefined) |  | 
61.4 | > 80 |  | Cc1ccc(N2CCC(NC(=O)C(=O)NC3CCc4ccccc43)C2=O)c(Cl)c1 (centres undefined) |  | 
> 80 | 9.7 |  | Cc1ccc(N2CCC(NC(=O)C(=O)Nc3ccc4c(c3)C(C)(C)c3ccccc3-4)C2=O)c(Cl)c1 (centres undefined) |  | 
60.4 | 54.7 |  | Cc1ccc(N2CCC(NC(=O)CC(=O)Nc3ccc(-c4ccccc4)cc3)C2=O)c(Cl)c1 (centres undefined) |  | 
21.3 | 13 |  | Cc1ccc(C(=O)N2CCC(NC(=O)C(=O)c3c[nH]c4ccc(Br)cc34)C2)c(Cl)c1 (centres undefined) |  | 
53.9 | 52.8 |  | Cc1ccc(N2CCC(NC(=O)C(=O)c3c[nH]c4ccc(C)cc34)C2=O)c(Cl)c1 (centres undefined) |  | 
60.8 | 61.5 |  | Cc1ccc(C(=O)NC2CCN(C(=O)C(=O)c3c[nH]c4ccc(Br)cc34)CC2)c(Cl)c1 |  | 
59.2 | 27.3 |  | Cc1ccc(C(=O)NC2(C)CCN(C(=O)C(=O)c3c[nH]c4ccc(Br)cc34)CC2)c(Cl)c1 |  | 
27.8 | > 80 |  | COc1cc2nccc(Oc3ccc(NC(=O)NC4CC4)c(Cl)c3)c2cc1C(N)=O [LENVATINIB] | 85 | 94.6
22.2 | 21.3 |  | Cc1ccc(C(=O)N2CCC(C)(NC(=O)C(=O)c3c[nH]c4ccc(Br)cc34)CC2)c(Cl)c1 |  | 
24.9 | 11.8 |  | O=C(NC1CCN(c2ccc(F)cc2)C1=O)C(=O)c1c[nH]c2ccc(Br)cc12 (centres undefined) |  | 
